# Literature values in US12036321B2, “Compositions and methods for treating or preventing multiple organ dysfunction syndrome” (VIVACELLE BIO, INC., priority 2020, dated 2024).
# Read-outs that look alike come from different tables or passages of the source.
# Tests used:
# [1] = Battion et al., J Amer Oil Chem Soc 1968
# human neutrophils = settings: Simpkins et al., Life Sci 1985
# [2] = system: Nitric oxide synthase (NOS); settings: nitric oxide synthase inhibitor, Lopez et al., Crit. Care Med. 2004
structure (smiles),measurement,setting,value
O=O [Oxygen],solubility of oxygen in lipid relative to water,[1],4.41 times
C=CCN1CC[C@]23c4c5ccc(O)c4O[C@H]2C(=O)CC[C@]3(O)[C@H]1C5 [(+) naloxone],concentration range that produces anti-inflammatory effect,human neutrophils,10^−5-10^−4 M
CN=C(N)NCCC[C@H](N)C(=O)O.Cl [546C88],outcome of trial in patients with septic shock,[2],increased mortality and multiple organ failure
same,outcome of trial in patients with septic shock,[2]; listed as 54C88,increased mortality
